Measurements from patent US8242082B2, “Antibacterial peptide” (Seikagaku Corporation, priority 2004, dated 2012).
Entries after “also recorded” stand apart in the source; their conditions may differ. No end group written: not given here.

Key:
[1] = system: binding between LPS and RAW 246.7 cells; assay: Determination of LPS-cell-binding inhibitory effect (Alexa 488-labeled LPS, FACS); type: cell-based; conditions: for LPS-cell-binding inhibitory effect: RAW 246.7 cells, Alexa 488-labeled LPS 100 ng/mL; for LPS-cell-binding inhibitory effect, comparison among test substances: relative ranking from the figures
Protocol: RAW 246.7 cells (macrophage cell strain) were cultured by use of an RPMI 1640 medium containing 10% FCS and collected. The collected cells were diluted with the same medium so that the cell concentration was adjusted to 5×10^5/mL. To the diluted liquid (500 μL), a test substance (5 μL) was added, and the mixture was subjected to shaking culture at 37° C. for 10 minutes. Subsequently, LPS that had been labeled with Alexa 488 (final concentration: 100 ng/mL) was added to the culture, and the mixture was subjected to shaking culture at 37° C. for 15 minutes. The collected cells were washed with PBS (3 mL×2) and suspended again in PBS (300 μL). Binding of Alexa 488-labeled LPS was measured through FACS. Control samples (a sample containing no labeled LPS (background) and an antibacterial-peptide-free sample (maximum LPS binding degree) were treated similarly, and the degree of the inhibitory effect on binding between LPS and RAW 246.7 cells was determined on the basis of comparison with control samples.
In a manner similar to that of the aforementioned <2-2>, the LPS-cell-binding inhibitory effect of the same test substances was determined. […] In FIG. 7, the test results of 1-18, 1-18m, and 1-18 m2 are represented by white dots, black dots, and black squares, respectively (X-axis: test substance concentration, Y-axis: percent binding of LPS to cells).

[2] = system: E. coli, S. aur, MSSA, and MRSA; assay: Determination of antibacterial (bacteriocidal) effect, Alamar Blue; type: cell-based, Escherichia coli; Staphylococcus aureus; conditions: for antibacterial effect: gram-negative and gram-positive bacteria, 37° C. for six hours, absorbance difference with Alamar Blue; for antibacterial effect, comparison among test substances: relative ranking from the figures
Protocol: Each of E. coli, S. aur, MSSA, and MRSA was subjected to shaking culture overnight at 37° C. by use of a Muller-Hinton medium (product of DIFCO), and the cells precipitated through centrifugation were separated and washed with a Phenol Red-free RPMI 1640 medium. Strains of E. coli, S. aur, MSSA, and MRSA were prepared so that the cell concentrations were adjusted to 1×10^8 CFU/mL, 2×10^8 CFU/mL, 2×10^8 CFU/mL, and 2×10^8 CFU/mL, respectively, the concentrations being determined from the corresponding absorbance values at 650 nm by means of a spectrophotometer.
By use of a 96-well plate, each cell suspension (1×10^6 CFU/mL) (100 μL), a test substance (10 μL), an RPMI 1640 medium (70 μL), and an Alamar Blue reagent (product of BIOSOURCE) (20 μL) were admixed. In the presence of Alamar Blue, pink fluorescence attributed to live cells is observed, whereas the admixture remains blue when the cells are dead.
Each admixture was incubated at a constant temperature of 37° C. for six hours, and the difference between absorbance at 560 nm and that at 595 nm was obtained.
The procedure of the aforementioned <2-1> was repeated, except that 1-18, 1-18m, and 1-18 m2 were tested and the difference between absorbance at 550 nm and that at 590 nm was measured, to thereby determine the antibacterial effect of the test substances with respect to each of E. coli, S. aur, MSSA, and MRSA. […] In FIG. 6, the test results of 1-18 are represented by “CAP11,” and the black dots, white dots, black squares, and white squares denote the antibacterial effects to E. coli, S. aur, MSSA, and MRSA, respectively (X-axis: test substance concentration, Y-axis: difference between absorbance at 550 nm and that at 590 nm).

[3] = system: Candida albicans (CA53133 strain); assay: Determination of antibacterial (bacteriocidal) effect (antifungal effect) to fungi, Alamar Blue; type: cell-based; conditions: for antibacterial (bacteriocidal) effect to fungi: Candida albicans, 35° C. for fourteen hours
Protocol: Candida albicans (CA53133 strain) was grown in Sabouraud dextrose agar. Colonies formed in the agar were collected and suspended to serum-free and Phenol Red-free RPM11640 liquid medium (SIGMA). The concentration of cells in the medium was determined from the corresponding absorbance value at 550 nm by means of spectrophotometer, and the concentration is adjusted to 0.5−2.5×10^4 CFU/mL. By use of a 96-well plate, each cell suspension (0.5-2.5×10^4 CFU/mL) (20 μL), a test substance (CAP11, 1-18 or 1-18 m2) (10 μL), an RPMI 1640 liquid medium (150 μL), and an Alamar Blue reagent (product of BIOSOURCE) (20 μL) were admixed. Each admixture was incubated at a constant temperature of 35° C. for fourteen hours, and the difference between absorbance at 550 nm and that at 595 nm was obtained.

Substance	LPS-cell-binding inhibitory effect [1]	antibacterial effect [2]	LPS-cell-binding inhibitory effect, comparison among test substances [1]	antibacterial effect, comparison among test substances [2]	antibacterial (bacteriocidal) effect to fungi [3]	antifungal effect, comparison among test substances ([3]; relative ranking from FIG. 8)
9-26: partial peptide, 9th to 26th amino acid residues of the CAP11 monomer	an LPS-cell-binding inhibitory effect	exhibited an antibacterial effect	–	–	–	–
16-33: partial peptide, 16th to 33th amino acid residues of the CAP11 monomer (LGRKIGKTGRKVWKAWRE; A partial peptide of CAP11)	an LPS-cell-binding inhibitory effect	exhibited an antibacterial effect	–	–	–	–
GLRKKFRKTRKRIQKLGR [1-18]	exhibit an LPS-cell-binding inhibitory effect	exhibited an antibacterial effect; also recorded: exhibit an antibacterial (bacteriocidal) effect	most potent; also recorded: then 1-18	most potent antibacterial effect; also recorded: then 1-18	exhibit an antibacterial (bacteriocidal) effect to fungi	–
GLRKLFRKLLKLIQKLLR [1-18m]	exhibit an LPS-cell-binding inhibitory effect	exhibit an antibacterial (bacteriocidal) effect	–	–	–	–
KLRKLFRKLLKLIRKLLR [1-18 m2, synthesized and substituted form of CAP11 (1-18)]	exhibit an LPS-cell-binding inhibitory effect	exhibit an antibacterial (bacteriocidal) effect	strongest effect	strongest antibacterial effect	exhibit an antibacterial (bacteriocidal) effect to fungi	strongest antifungal effect
monomer: CAP11 monomer having 43 amino acid units and no cysteine disulfide bond (GLRKKFRKTRKRIGKLGRKIGKTGRKVWKAWREYGQIPYPCRI; A partial peptide of CAP11) [reference compound]	an LPS-cell-binding inhibitory effect	exhibited an antibacterial effect	No significant difference	–	exhibit an antibacterial (bacteriocidal) effect to fungi	–
